Test system: 439559-082-T-J2-PDC spheroids viability
Experiment: Anticancer human tumor 439559-082-T-J2-PDC patient-derived colon adenocarcinoma cell line growth inhibition [GQUAD]
Settings: for IC50: curve of first compound; for viability, T/C: stronger effect = lower value
In short: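 Multi-cell-type spheroids of tumor cells with HUVEC and mesenchymal stem cells, treated with drug combinations. Concentrations descend in half-log steps from near clinical Cmax, or from 10 microM where Cmax is unknown; viability read-out.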

[1] = second compound 0.0316 µM, first compound 0.0316 µM
[2] = second compound 0.0316 µM, first compound 0.1 µM
[3] = second compound 0.0316 µM, first compound 0.316 µM
[4] = second compound 0.0316 µM, first compound 1 µM
[5] = second compound 0.0316 µM, first compound 3.16 µM
[6] = second compound 0.0316 µM, first compound 10 µM
[7] = second compound 0.1 µM, first compound 0.0316 µM
[8] = second compound 0.1 µM, first compound 0.1 µM
[9] = second compound 0.1 µM, first compound 0.316 µM
[10] = second compound 0.1 µM, first compound 1 µM
[11] = second compound 0.1 µM, first compound 3.16 µM
[12] = second compound 0.1 µM, first compound 10 µM
[13] = second compound 0.316 µM, first compound 0.0316 µM
[14] = second compound 0.316 µM, first compound 0.1 µM
[15] = second compound 0.316 µM, first compound 0.316 µM
[16] = second compound 0.316 µM, first compound 1 µM
[17] = second compound 0.316 µM, first compound 3.16 µM
[18] = second compound 0.316 µM, first compound 10 µM
[19] = second compound 1 µM, first compound 0.0316 µM
[20] = second compound 1 µM, first compound 0.1 µM
[21] = second compound 1 µM, first compound 0.316 µM
[22] = second compound 1 µM, first compound 1 µM
[23] = second compound 1 µM, first compound 3.16 µM
[24] = second compound 1 µM, first compound 10 µM
[25] = second compound 3.16 µM, first compound 0.0316 µM
[26] = second compound 3.16 µM, first compound 0.1 µM
[27] = second compound 3.16 µM, first compound 0.316 µM
[28] = second compound 3.16 µM, first compound 1 µM
[29] = second compound 3.16 µM, first compound 3.16 µM
[30] = second compound 3.16 µM, first compound 10 µM
[31] = second compound 10 µM, first compound 0.0316 µM
[32] = second compound 10 µM, first compound 0.1 µM
[33] = second compound 10 µM, first compound 0.316 µM
[34] = second compound 10 µM, first compound 1 µM
[35] = second compound 10 µM, first compound 3.16 µM
[36] = second compound 10 µM, first compound 10 µM
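Further: spheroids exposed to the agents for 7 days before readout.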
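Wherever viability, T/C is given: percent of luminescence signal in DMSO vehicle wells taken as 100% viability.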

Question: Which results are given for `C=CC(=O)N1CCN(c2nc(=O)n(-c3c(C)ccnc3C(C)C)c3nc(-c4c(O)cccc4F)c(F)cc23)C(C)C1` (stereo unspecified) + Cc1cnc(CNC(=O)c2c(=O)c3ccc(N4CCCN(C)CC4)nc3n3c2sc2ccccc23)cn1?
Answer: IC50 (second compound 0.0316 µM): > 10000 nM; IC50 (second compound 0.1 µM): > 10000 nM; IC50 (second compound 0.316 µM): > 10000 nM; IC50 (second compound 1 µM): > 10000 nM; IC50 (second compound 3.16 µM): > 10000 nM; IC50 (second compound 10 µM): > 10000 nM; viability, T/C [1]: 116%; viability, T/C [2]: 95.1%; viability, T/C [3]: 103%; viability, T/C [4]: 110%; viability, T/C [5]: 95.6%; viability, T/C [6]: 111%; viability, T/C [7]: 99.3%; viability, T/C [8]: 99.1%; viability, T/C [9]: 87.3%; viability, T/C [10]: 87.9%; viability, T/C [11]: 93%; viability, T/C [12]: 93.2%; viability, T/C [13]: 95.2%; viability, T/C [14]: 92.3%; viability, T/C [15]: 84.9%; viability, T/C [16]: 91.2%; viability, T/C [17]: 91.1%; viability, T/C [18]: 93%; viability, T/C [19]: 73.7%; viability, T/C [20]: 83%; viability, T/C [21]: 76.1%; viability, T/C [22]: 75.4%; viability, T/C [23]: 87.9%; viability, T/C [24]: 75.9%; viability, T/C [25]: 76.9%; viability, T/C [26]: 73%; viability, T/C [27]: 71.5%; viability, T/C [28]: 71.1%; viability, T/C [29]: 78%; viability, T/C [30]: 72.9%; viability, T/C [31]: 59.2%; viability, T/C [32]: 74.7%; viability, T/C [33]: 75.8%; viability, T/C [34]: 76.2%; viability, T/C [35]: 77.1%; viability, T/C [36]: 72.6%

Question: Which results are given for `Nc1ccn(C2OC(CO)C(O)C2(F)F)c(=O)n1` (stereo unspecified) + Cc1[nH]c2ccc(F)cc2c1-c1nc2c3cccnc3c3ncccc3c2[nH]1?
Answer: IC50 (second compound 0.0316 µM): 375 nM; IC50 (second compound 0.1 µM): 468 nM; IC50 (second compound 0.316 µM): 362 nM; IC50 (second compound 1 µM): 304 nM; IC50 (second compound 3.16 µM): 203 nM; IC50 (second compound 10 µM): 211 nM; viability, T/C [1]: 84.5%; viability, T/C [2]: 76.7%; viability, T/C [3]: 51.8%; viability, T/C [4]: 34.9%; viability, T/C [5]: 26.7%; viability, T/C [6]: 25.9%; viability, T/C [7]: 92.7%; viability, T/C [8]: 71.9%; viability, T/C [9]: 59%; viability, T/C [10]: 36.9%; viability, T/C [11]: 29.5%; viability, T/C [12]: 23.3%; viability, T/C [13]: 98.8%; viability, T/C [14]: 73.6%; viability, T/C [15]: 47.8%; viability, T/C [16]: 41.3%; viability, T/C [17]: 28.6%; viability, T/C [18]: 23.7%; viability, T/C [19]: 82.8%; viability, T/C [20]: 67.8%; viability, T/C [21]: 50.4%; viability, T/C [22]: 32.8%; viability, T/C [23]: 27.6%; viability, T/C [24]: 22.6%; viability, T/C [25]: 73.3%; viability, T/C [26]: 65.1%; viability, T/C [27]: 38.6%; viability, T/C [28]: 31%; viability, T/C [29]: 26.4%; viability, T/C [30]: 17.5%; viability, T/C [31]: 73.2%; viability, T/C [32]: 66.2%; viability, T/C [33]: 40.9%; viability, T/C [34]: 27%; viability, T/C [35]: 26.2%; viability, T/C [36]: 19%

Question: Which IC50 (second compound 0.0316 µM) does the source give for `CC1COCCN1c1cc(-c2ccnn2C)c2ccnc(-c3ccn[nH]3)c2n1` (stereo unspecified) + Cc1[nH]c2ccc(F)cc2c1-c1nc2c3cccnc3c3ncccc3c2[nH]1 here?
Answer: Its IC50 is 427 nM.

Question: What about the IC50 (second compound 0.1 µM) of the same compound?
Answer: Its IC50 is 269 nM.

Question: What about the IC50 (second compound 0.316 µM) of the same compound?
Answer: Its IC50 is 295 nM.

Question: What about the IC50 (second compound 1 µM) of the same compound?
Answer: The IC50 was 276 nM.

Question: And the IC50 (second compound 3.16 µM)?
Answer: Its IC50 is 227 nM.

Question: What about the IC50 (second compound 10 µM) of the same compound?
Answer: Its IC50 is 209 nM.

Question: What about the viability, T/C [1] of the same compound?
Answer: Its viability, T/C is 106%.

Question: And the viability, T/C [2]?
Answer: The viability, T/C was 80.6%.

Question: What about the viability, T/C [3] of the same compound?
Answer: Its viability, T/C is 53.5%.

Question: And the viability, T/C [4]?
Answer: The viability, T/C was 38.8%.

Question: And the viability, T/C [5]?
Answer: The viability, T/C was 35.8%.

Question: What about the viability, T/C [6] of the same compound?
Answer: The viability, T/C was 30.7%.

Question: What about the viability, T/C [7] of the same compound?
Answer: The viability, T/C was 103%.

Question: And the viability, T/C [8]?
Answer: Its viability, T/C is 77.2%.

Question: What about the viability, T/C [9] of the same compound?
Answer: Its viability, T/C is 45.7%.

Question: And the viability, T/C [10]?
Answer: The viability, T/C was 36.9%.

Question: What about the viability, T/C [11] of the same compound?
Answer: Its viability, T/C is 40.8%.

Question: What about the viability, T/C [12] of the same compound?
Answer: The viability, T/C was 34.5%.

Question: What about the viability, T/C [13] of the same compound?
Answer: The viability, T/C was 101%.

Question: And the viability, T/C [14]?
Answer: The viability, T/C was 87.4%.

Question: And the viability, T/C [15]?
Answer: The viability, T/C was 47.8%.

Question: What about the viability, T/C [16] of the same compound?
Answer: Its viability, T/C is 34%.

Question: What about the viability, T/C [17] of the same compound?
Answer: Its viability, T/C is 41.6%.

Question: What about the viability, T/C [18] of the same compound?
Answer: The viability, T/C was 30.2%.

Question: What about the viability, T/C [19] of the same compound?
Answer: Its viability, T/C is 91.6%.

Question: What about the viability, T/C [20] of the same compound?
Answer: The viability, T/C was 82%.

Question: And the viability, T/C [21]?
Answer: The viability, T/C was 46%.

Question: What about the viability, T/C [22] of the same compound?
Answer: Its viability, T/C is 31.9%.

Question: What about the viability, T/C [23] of the same compound?
Answer: The viability, T/C was 39.6%.

Question: And the viability, T/C [24]?
Answer: Its viability, T/C is 29.8%.

Question: What about the viability, T/C [25] of the same compound?
Answer: The viability, T/C was 88.2%.

Question: And the viability, T/C [26]?
Answer: The viability, T/C was 73.5%.

Question: What about the viability, T/C [27] of the same compound?
Answer: The viability, T/C was 40.6%.

Question: And the viability, T/C [28]?
Answer: The viability, T/C was 30.3%.

Question: What about the viability, T/C [29] of the same compound?
Answer: The viability, T/C was 34.1%.

Question: And the viability, T/C [30]?
Answer: Its viability, T/C is 27.4%.

Question: What about the viability, T/C [31] of the same compound?
Answer: The viability, T/C was 76.1%.

Question: And the viability, T/C [32]?
Answer: Its viability, T/C is 73.5%.

Question: And the viability, T/C [33]?
Answer: Its viability, T/C is 36.8%.

Question: What about the viability, T/C [34] of the same compound?
Answer: The viability, T/C was 31.6%.

Question: What about the viability, T/C [35] of the same compound?
Answer: Its viability, T/C is 32.8%.

Question: And the viability, T/C [36]?
Answer: The viability, T/C was 29.6%.

— PubChem BioAssay AID2060510 (Molecular Pharmacology Branch, DTP, NCI, 2025)
